In ChEMBL document CHEMBL1275247, “Pharmacokinetics and safety of CXA-101, a new antipseudomonal cephalosporin, in healthy adult male and female subjects receiving single- and multiple-dose intravenous infusions” (Antimicrob Agents Chemother, 2010):

How the values were obtained:
[1] = Cmax in healthy human at 1500 mg, iv administered as single dose as 1 hr iv infusion; type: ADME, organism-based; parameters: dose 1500 mg, route intravenous; conditions: in vivo
[2] = Cmax in healthy human at 2000 mg, iv administered as single dose as 1 hr iv infusion; type: ADME, organism-based; parameters: dose 2000 mg, route intravenous; conditions: in vivo
[3] = Tmax in healthy human at 250 mg, iv administered as single dose as 1 hr iv infusion; type: ADME, organism-based; conditions: in vivo
[4] = Tmax in healthy human at 2000 mg, iv administered as single dose as 1 hr iv infusion; type: ADME, organism-based; conditions: in vivo
[5] = AUC (0 to infinity) in healthy human at 1000 mg, iv administered as single dose as 1 hr iv infusion; type: ADME, organism-based; parameters: dose 1000 mg, route intravenous, time infinity; conditions: plasma
[6] = Clearance in healthy human at 500 mg, iv administered as single dose as 1 hr iv infusion; type: ADME, organism-based; conditions: in vivo
[7] = Clearance in healthy human at 1000 mg, iv administered as single dose as 1 hr iv infusion; type: ADME, organism-based; conditions: in vivo
[8] = Clearance in healthy human at 2000 mg, iv administered as single dose as 1 hr iv infusion; type: ADME, organism-based; conditions: in vivo
[9] = Renal clearance in healthy human at 250 mg, iv administered as single dose as 1 hr iv infusion; type: ADME, organism-based, Kidney; conditions: in vivo, read-out: CL_renal
[10] = Renal clearance in healthy human at 2000 mg, iv administered as single dose as 1 hr iv infusion; type: ADME, organism-based, Kidney; conditions: in vivo, read-out: CL_renal
[11] = Volume of distribution at steady state in healthy human at 500 mg, iv administered as single dose as 1 hr iv infusion; type: ADME, organism-based; conditions: in vivo
[12] = Drug recovery in urine of healthy human at 1500 mg, iv administered as single dose as 1 hr iv infusion after 24 hrs; type: ADME, organism-based; conditions: read-out: Activity
[13] = Half-life in plasma of healthy human 1000 mg administered as single ascending dose, iv for 1 hr infusion; type: ADME, organism-based
[14] = Drug recovery in urine of healthy human at 500 mg, iv administered as single dose as 1 hr iv infusion after 24 hrs; type: ADME, organism-based; conditions: read-out: Activity
Homo sapiens [15] = experiment: Toxicity in healthy human assessed as occurrence of abdominal pain at 1000 mg, iv administered as single dose as 1 hr iv infusion; type: organism-based, Abdomen; conditions: in vivo
Homo sapiens [16] = experiment: Toxicity in healthy human assessed as occurrence of headache at 1000 mg, iv administered as single dose as 1 hr iv infusion; type: organism-based; conditions: in vivo
Homo sapiens [17] = experiment: Toxicity in healthy human assessed as occurrence of headache at 1500 mg, iv administered as single dose as 1 hr iv infusion; type: organism-based; conditions: in vivo
Homo sapiens [18] = experiment: Toxicity in healthy human assessed as occurrence of hypoaesthesia at 500 mg, iv administered as 1 hr infusion every 8 hrs for 10 days; type: organism-based; conditions: in vivo
Homo sapiens [19] = experiment: Toxicity in healthy human assessed as occurrence of paraesthesia at 500 mg, iv administered as 1 hr infusion every 8 hrs for 10 days; type: organism-based; conditions: in vivo
Homo sapiens [20] = experiment: Toxicity in healthy human assessed as occurrence of flushing at 1000 mg, iv administered as 1 hr infusion every 8 hrs for 10 days; type: organism-based; conditions: in vivo
[21] = Cmax in healthy human at 500 mg, iv administered as 1 hr infusion every 8 hrs for 10 days measured on day 1; type: ADME, organism-based; parameters: dose 500 mg, route intravenous; conditions: in vivo
[22] = Cmax in healthy human at 1000 mg, iv administered as 1 hr infusion every 8 hrs for 10 days measured on day 1; type: ADME, organism-based; parameters: dose 1000 mg, route intravenous; conditions: in vivo
[23] = Cmax in healthy human at 1500 mg, iv administered as 1 hr infusion every 12 hrs for 10 days measured on day 1; type: ADME, organism-based; parameters: dose 1500 mg, route intravenous; conditions: in vivo
[24] = Tmax in healthy human at 1500 mg, iv administered as 1 hr infusion every 12 hrs for 10 days measured on day 10; type: ADME, organism-based; conditions: in vivo
[25] = AUC (0 to infinity) in healthy human at 500 mg, iv administered as 1 hr infusion every 8 hrs for 10 days measured on day 1; type: ADME, organism-based; parameters: dose 500 mg, route intravenous, time infinity; conditions: plasma
[26] = AUC (0 to infinity) in healthy human at 1000 mg, iv administered as 1 hr infusion every 8 hrs for 10 days measured on day 1; type: ADME, organism-based; parameters: dose 1000 mg, time infinity, route intravenous; conditions: plasma
[27] = AUC (0 to infinity) in healthy human at 1500 mg, iv administered as 1 hr infusion every 12 hrs for 10 days measured on day 1; type: ADME, organism-based; parameters: dose 1500 mg, route intravenous, time infinity; conditions: plasma
[28] = Clearance in healthy human at 500 mg, iv administered as 1 hr infusion every 8 hrs for 10 days measured on day 10; type: ADME, organism-based; conditions: in vivo
[29] = Clearance in healthy human at 1500 mg, iv administered as 1 hr infusion every 12 hrs for 10 days measured on day 10; type: ADME, organism-based; conditions: in vivo
[30] = Renal clearance in healthy human at 500 mg, iv administered as 1 hr infusion every 8 hrs for 10 days measured on day 1; type: ADME, organism-based, Kidney; conditions: in vivo, read-out: CL_renal
[31] = Renal clearance in healthy human at 500 mg, iv administered as 1 hr infusion every 8 hrs for 10 days measured on day 10; type: ADME, organism-based, Kidney; conditions: in vivo, read-out: CL_renal
[32] = Renal clearance in healthy human at 1000 mg, iv administered as 1 hr infusion every 8 hrs for 10 days measured on day 10; type: ADME, organism-based, Kidney; conditions: in vivo, read-out: CL_renal
[33] = Renal clearance in healthy human at 1500 mg, iv administered as 1 hr infusion every 12 hrs for 10 days measured on day 1; type: ADME, organism-based, Kidney; conditions: in vivo, read-out: CL_renal
[34] = Volume of distribution at steady state in healthy human at 500 mg, iv administered as 1 hr infusion every 8 hrs for 10 days measured on day 1; type: ADME, organism-based; conditions: in vivo
[35] = Half-life in plasma of healthy human 500 mg, iv administered as 1 hr infusion every 8 hrs for 10 days measured on day 10; type: ADME, organism-based
[36] = Half-life in plasma of healthy human 1000 mg, iv administered as 1 hr infusion every 8 hrs for 10 days measured on day 1; type: ADME, organism-based
[37] = Half-life in plasma of healthy human 1000 mg, iv administered as 1 hr infusion every 8 hrs for 10 days measured on day 10; type: ADME, organism-based
[38] = Mean residence time in healthy human at 1000 mg, iv administered as 1 hr infusion every 8 hrs for 10 days measured on day 1; type: ADME, organism-based; conditions: in vivo
[39] = Mean residence time in healthy human at 1500 mg, iv administered as 1 hr infusion every 12 hrs for 10 days measured on day 1; type: ADME, organism-based; conditions: in vivo
[40] = Mean residence time in healthy human at 1500 mg, iv administered as 1 hr infusion every 12 hrs for 10 days measured on day 10; type: ADME, organism-based; conditions: in vivo
[41] = Drug recovery in urine of healthy human at 500 mg, iv administered as 1 hr infusion every 8 hrs for 10 days measured on day 10; type: ADME, organism-based; conditions: read-out: Activity
[42] = Drug recovery in urine of healthy human at 1000 mg, iv administered as 1 hr infusion every 8 hrs for 10 days measured on day 10; type: ADME, organism-based; conditions: read-out: Activity
[43] = Drug recovery in urine of healthy human at 1500 mg, iv administered as 1 hr infusion every 12 hrs for 10 days measured on day 1; type: ADME, organism-based; conditions: read-out: Activity
[44] = Drug recovery in urine of healthy human at 1500 mg, iv administered as 1 hr infusion every 12 hrs for 10 days measured on day 10; type: ADME, organism-based; conditions: read-out: Activity
[45] = Cmax in healthy human at 250 mg, iv administered as single dose as 1 hr iv infusion; type: ADME, organism-based; parameters: dose 250 mg, route intravenous; conditions: in vivo
[46] = Cmax in healthy human at 500 mg, iv administered as single dose as 1 hr iv infusion; type: ADME, organism-based; parameters: dose 500 mg, route intravenous; conditions: in vivo

## Cn1c(N)c(NC(=O)NCCN)c[n+]1CC1=C(C(=O)O)N2C(=O)[C@@H](NC(=O)/C(=N\OC(C)(C)C(=O)[O-])c3nsc(N)n3)[C@H]2SC1 [CEFTOLOZANE]
[1]
  Cmax: 87.4 µg/mL
[2]
  Cmax: 128 µg/mL
[3]
  Tmax: 1.03 h
[4]
  Tmax: 1.06 h
[5]
  AUC(0-inf): 152 µg·h/mL
[6]
  clearance: 99.1 mL/min
[7]
  clearance: 110 mL/min
[8]
  clearance: 96.9 mL/min
[9]
  CL renal at 1 h: 101 mL/min
[10]
  CL renal at 1 h: 92.9 mL/min
[11]
  Vd: 14.8 L
[12]
  dose excreted at 24 h: 93.4%
[13]
  half-life: 2.25 h
[14]
  dose excreted at 24 h: 91.2%
Homo sapiens [15]
  Activity: Non-toxic
Homo sapiens [16]
  Activity: Non-toxic
Homo sapiens [17]
  Activity: Non-toxic
Homo sapiens [18]
  Activity: Non-toxic
Homo sapiens [19]
  Activity: Non-toxic
Homo sapiens [20]
  Activity: Non-toxic
[21]
  Cmax: 34.3 µg/mL
[22]
  Cmax: 52.8 µg/mL
[23]
  Cmax: 85.4 µg/mL
[24]
  Tmax: 1 h
[25]
  AUC(0-inf): 88.1 µg·h/mL
[26]
  AUC(0-inf): 149 µg·h/mL
[27]
  AUC(0-inf): 219 µg·h/mL
[28]
  clearance: 101 mL/min
[29]
  clearance: 121 mL/min
[30]
  CL renal: 78.4 mL/min
[31]
  CL renal: 87.6 mL/min
[32]
  CL renal: 111 mL/min
[33]
  CL renal: 119 mL/min
[34]
  Vd: 13.8 L
[35]
  half-life: 2.2 h
[36]
  half-life: 2.38 h
[37]
  half-life: 2.69 h
[38]
  MRT: 2.64 h
[39]
  MRT: 2.64 h
[40]
  MRT: 2.5 h
[41]
  dose excreted at 10 day: 84.6%
[42]
  dose excreted at 10 day: 94.1%
[43]
  dose excreted at 1 day: 104%
[44]
  dose excreted at 10 day: 105%
[45]
  Cmax: 16.5 µg/mL
[46]
  Cmax: 32.2 µg/mL
